Measured values from patent US10865387B2, “Methods of obtaining pancreatic endocrine cells” (The University Court of the University of Aberdeen, priority 2014, dated 2020).

Columns and labels:
[1] = test system: human exocrine enriched fraction (EEF); assay: RT-qPCR of hormone and transcription factor mRNA in reprogrammed exocrine cells; assay type: cell-based
Experimental: After 48 h the cells were incubated for another 72 h in serum free medium (SFM) prepared with RPMI 1640, insulin-transferrin-selenium (Gibco) and 1% bovine serum albumin (Sigma), supplemented with 10 μM SB431542, 2 μM Y27632, 1 μM 5-Aza-2′deoxycytidine and 10 mM sodium butyrate (all from Sigma). On the next day the cells were incubated for 4 h with the adenoviruses encoding pancreatic transcription factors. On the following day the medium was changed for SFM supplemented with 1 nM betacellulin (R&D systems, Abingdon, UK), 10 nM exendin-4 and 10 mM nicotinamide (both from Sigma). The medium was changed every two days for another 6 days before harvesting.
Recombinant adenoviruses encoding the mouse sequences of PDX1, MAFA, NGN3 and PAX4 (Swales et al., 2012) were prepared using the Ad-Easy™ system (Agilent Technologies, Edinburgh, UK). The adenoviruses containing PDX1 and NGN3 also expressed GFP through a downstream CMV promoter. Viral transduction was performed in SFM for 4 h at a multiplicity of infection (MOI) of 100 for each virus.
QRT/PCR was performed as previously described (Lima et al., 2012. Data were analysed using the 2^−ΔΔCT method. Statistical analysis was performed using PRISM software and the student's t-test or one-way ANOVA followed by the Dunnet's post-hoc test, as appropriate. The list of TaqMan probes are listed in Table 1:
Knockdown of Arx in transdifferentiating cells was performed by transfection with a pool of specific targeting small inhibitory RNAs, or scrambled controls (Dharmacon, Loughborough, UK). 100 nM siRNA was transfected on day 6 of the transdifferentiation protocol using Dharmafect 1 (Dharmacon), according to the manufacturer's instructions.
EEF cells were plated directly from the low purity fractions obtained following islet isolation. EEF cells were cultured as a monolayer for two days and then treated with SB, Y2, Aza and NaBu for 3 days. […]

[2] = test system: human exocrine enriched fraction (EEF); assay: Insulin, C-peptide and glucagon content of cell lysates by ELISA; assay type: cell-based; details: reprogrammed (siARX) cells with ZnCl2 10 μM; FIG. 15
Text: FIG. 10. ARX inhibition enhances beta cell maturation and decreases alpha cell differentiation. (A) C-peptide release by untreated (N/A), transdifferentiated cells in the absence of siARX (REP), siARX transdifferentiated cells (siARX) and in the absence of PAX4 (siARX-PAX4). C-peptide was detected from the culture medium by a specific human C-peptide ELISA. Data are representative of triplicate experiments. (B) Insulin, C-peptide and Proinsulin content of untreated, transdifferentiated cells in the absence of siARX (REP), siARX transdifferentiated cells (siARX) and human islets. The content of each peptide was detected by specific human ELISAs after cell lysis and normalised to the total protein content. Data are representative of triplicate experiments. (C) Glucagon content of untreated, transdifferentiated cells in the absence of siARX (REP), siARX transdifferentiated cells (siARX) and human islets. Glucagon was detected by a specific human ELISA after cell lysis and normalised to the total protein content. Data are representative of triplicate experiments. […]
[…] were measured using a human glucagon Quantikine ELISA kit (R&D Systems, Abingdon, UK), a human C-peptide ELISA kit (Millipore, Livingston, UK), a human prosinsulin ELISA kit or a human insulin ELISA kit (both from Mercodia, Uppsala, Sweden). […]

[3] = cells reprogrammed (siARX) with ZnCl2 10 μM, FIG. 14

laminin
efficiency of reprogramming (relative expression of insulin) on extracellular matrix ([1]; PDX1/MAFA/NGN3/PAX4 protocol, compared with fibronectin, poly-lysine, collagen type I and IV, FIG. 4): improves the efficiency of reprogramming

[Cl-].[Cl-].[Zn+2] [ZnCl2]
insulin gene expression [1, 3]: significant effect | mRNA encoding PAX4 [1, 3]: increased levels | insulin (C-peptide) protein content [2]: stimulatory effect
